Key:
K562 [1] = assay: Growth inhibition of human K562 cells after 48 hrs by trypan blue assay; assay type: functional, cell-based; conditions: K562, 48 h
K562 [2] = assay: Antiproliferative activity against human K562 cells at 10 uM after 48 hrs by trypan blue assay; assay type: functional; conditions: K562, 48 h, read-out: GI

Question: For `Cc1ccc(/C=C/C(=O)Nc2ccc(Cl)cc2C(N)=O)cc1`, which IC50 (K562 [1]) is on record?
Answer: 6.3 µM

Question: And the inhibition of growth at 10 µM (K562 [2])?
Answer: 64%

Question: Which results are given for `NC(=O)c1cc(Br)ccc1NC(=O)/C=C/c1ccccc1Cl`?
Answer: IC50 (K562 [1]): 8.1 µM; inhibition of growth at 10 µM (K562 [2]): 59%

Question: With `NC(=O)c1cc(Cl)ccc1NC(=O)/C=C/c1cccc(Br)c1` as the compound, how does the IC50 (K562 [1]) read?
Answer: > 10 µM

Question: What about the inhibition of growth at 10 µM (K562 [2]) of the same compound?
Answer: 27%

Question: Which IC50 (K562 [1]) does the source give for `Cc1ccccc1/C=C/C(=O)Nc1ccc(Br)cc1C(N)=O` here?
Answer: > 10 µM

Question: What about the inhibition of growth at 10 µM (K562 [2]) of the same compound?
Answer: 43.2%

Question: What does the source list for `NC(=O)c1cc(Cl)ccc1NC(=O)/C=C/c1ccccc1Cl`?
Answer: IC50 (K562 [1]): 7.4 µM; inhibition of growth at 10 µM (K562 [2]): 58%

Question: Which IC50 (K562 [1]) does the source give for `NC(=O)c1cc(Br)ccc1NC(=O)/C=C/c1ccc(Cl)cc1` here?
Answer: > 10 µM

Question: What about the inhibition of growth at 10 µM (K562 [2]) of the same compound?
Answer: 22%

Question: Which results are given for `Cc1ccccc1/C=C/C(=O)Nc1ccc(I)cc1C(N)=O`?
Answer: IC50 (K562 [1]): > 10 µM; inhibition of growth at 10 µM (K562 [2]): 26.3%

Question: What does the source list for `NC(=O)c1cc(Br)ccc1NC(=O)/C=C/c1ccccc1Br`?
Answer: IC50 (K562 [1]): > 10 µM; inhibition of growth at 10 µM (K562 [2]): 46.2%

Question: With `NC(=O)c1ccccc1NC(=O)/C=C/c1ccccc1` as the compound, how does the IC50 (K562 [1]) read?
Answer: > 10 µM

Question: What about the inhibition of growth at 10 µM (K562 [2]) of the same compound?
Answer: 14.2%

Question: For `Cc1cccc(/C=C/C(=O)Nc2ccc(Br)cc2C(N)=O)c1`, which IC50 (K562 [1]) is on record?
Answer: > 10 µM

Question: What about the inhibition of growth at 10 µM (K562 [2]) of the same compound?
Answer: 43.8%

Question: What does the source list for `COc1cc2c(c(OC)c1OC)-c1ccc(OC)c(=O)cc1[C@@H](NC(C)=O)CC2` [COLCHICINE]?
Answer: IC50 (K562 [1]): 0.02 µM; inhibition of growth at 10 µM (K562 [2]): 63.6%

Question: `NC(=O)c1cc(Br)ccc1NC(=O)/C=C/c1cccc(Br)c1` was tested. Which IC50 (K562 [1]) did it give?
Answer: > 10 µM

Question: What about the inhibition of growth at 10 µM (K562 [2]) of the same compound?
Answer: 45.9%

Question: Which IC50 (K562 [1]) does the source give for `NC(=O)c1cc(Cl)ccc1NC(=O)/C=C/c1ccccc1Br` here?
Answer: 10 µM

Question: And the inhibition of growth at 10 µM (K562 [2])?
Answer: 49%

Question: For `Cc1ccc(/C=C/C(=O)Nc2ccc(Br)cc2C(N)=O)cc1`, which IC50 (K562 [1]) is on record?
Answer: > 10 µM

Question: And the inhibition of growth at 10 µM (K562 [2])?
Answer: 45.9%

Question: Which IC50 (K562 [1]) does the source give for `Cc1cccc(/C=C/C(=O)Nc2ccc(Cl)cc2C(N)=O)c1` here?
Answer: > 10 µM

Question: And the inhibition of growth at 10 µM (K562 [2])?
Answer: 37.8%

Question: How did the IC50 (K562 [1]) turn out when `NC(=O)c1cc(Br)ccc1NC(=O)/C=C/c1cccc(Cl)c1` was run?
Answer: > 10 µM

Question: And the inhibition of growth at 10 µM (K562 [2])?
Answer: 25.5%

Question: How did the IC50 (K562 [1]) turn out when `NC(=O)c1cc(Cl)ccc1NC(=O)/C=C/c1ccc(Cl)cc1` was run?
Answer: > 10 µM

Question: And the inhibition of growth at 10 µM (K562 [2])?
Answer: 31%

Question: Which results are given for `NC(=O)c1cc(Cl)ccc1NC(=O)/C=C/c1cccc(Cl)c1`?
Answer: IC50 (K562 [1]): > 10 µM; inhibition of growth at 10 µM (K562 [2]): 28.2%

Question: Which IC50 (K562 [1]) does the source give for `Cc1ccccc1/C=C/C(=O)Nc1ccc(Cl)cc1C(N)=O` here?
Answer: 9.5 µM

Question: What about the inhibition of growth at 10 µM (K562 [2]) of the same compound?
Answer: 52.2%

From ChEMBL document CHEMBL1795311, “Synthesis, antiproliferative activity, and mechanism of action of a series of 2-{[(2E)-3-phenylprop-2-enoyl]amino}benzamides” (Eur J Med Chem, 2011)
